# System: inflamed ears of experimental mice
# Test: Anti-inflammatory activity on ethyl phenyl propyolate-inflamed mice ears
# Type: in vivo
# Method: The test for anti-inflammatory activity can be done on lab mice by applying ethyl phenyl propyolate on mice ears at a concentration of 1 mg per ear to induce inflammation. The fullest swollen ear can be observed 1 hour after the application, then the tested extracts and reference compound, dexamethasone, are applied onto the inflamed ears at a dose of 0.05 mg/ear. The reduction in the thickness of the ears in comparison with the control group indicates anti-inflammatory activity, as shown in Table 1.
smiles,measurement,setting,value
"C[C@@H]1C[C@H]2[C@@H]3CCC4=CC(=O)C=C[C@]4(C)[C@@]3(F)[C@@H](O)C[C@]2(C)[C@@]1(O)C(=O)CO [Anti-inflammatory, Dexamethasone]",Percentage reduction of inflamed ears,"0 min, ethyl phenyl propyolate 1 mg per ear",0%
same,Percentage reduction of inflamed ears,"60 min after inducer (fullest swelling, time of application), 0.05 mg/ear",54.253%
same,Percentage reduction of inflamed ears,"90 min, 0.05 mg/ear topical",42.533%
same,Percentage reduction of inflamed ears,"120 min, 0.05 mg/ear topical",38.752%
same,Percentage reduction of inflamed ears,"240 min, 0.05 mg/ear topical",25.142%
same,Percentage reduction of inflamed ears,"360 min, 0.05 mg/ear topical",13.422%
same,Percentage reduction of inflamed ears,"480 min, 0.05 mg/ear topical",11.531%
